Source: patent US20260216196A1, “IMIDAZO[1,2-A]PYRIDINE AND IMIDAZO[1,2-A]PYRAZINE DERIVATIVES AS MLLT1 AND MLLT3 INHIBITORS” (DARK BLUE THERAPEUTICS LTD., priority 2022, published 2026)

What was measured:
MLLT3 = MLLT3 (Homo sapiens, UniProt P42568); assay: HTRF IC50 determination assay, MLLT3 / H3K9cro peptide displacement; details: MLLT3 assay IC50 (nM), 6His tagged MLLT3, biotinylated H3K9cro peptide, compound 20 μM to 20 nM, 11 data points in duplicate
MLLT1 = MLLT1 (Homo sapiens, UniProt Q03111); assay: biochemical; details: MLLT1 assay IC50 (nM), HTRF, 6His tagged MLLT1, biotinylated H3K9cro peptide; compound 20 μM to 20 nM, 11 data points in duplicate
Chain of MLLT1 (Q03111 whole entry): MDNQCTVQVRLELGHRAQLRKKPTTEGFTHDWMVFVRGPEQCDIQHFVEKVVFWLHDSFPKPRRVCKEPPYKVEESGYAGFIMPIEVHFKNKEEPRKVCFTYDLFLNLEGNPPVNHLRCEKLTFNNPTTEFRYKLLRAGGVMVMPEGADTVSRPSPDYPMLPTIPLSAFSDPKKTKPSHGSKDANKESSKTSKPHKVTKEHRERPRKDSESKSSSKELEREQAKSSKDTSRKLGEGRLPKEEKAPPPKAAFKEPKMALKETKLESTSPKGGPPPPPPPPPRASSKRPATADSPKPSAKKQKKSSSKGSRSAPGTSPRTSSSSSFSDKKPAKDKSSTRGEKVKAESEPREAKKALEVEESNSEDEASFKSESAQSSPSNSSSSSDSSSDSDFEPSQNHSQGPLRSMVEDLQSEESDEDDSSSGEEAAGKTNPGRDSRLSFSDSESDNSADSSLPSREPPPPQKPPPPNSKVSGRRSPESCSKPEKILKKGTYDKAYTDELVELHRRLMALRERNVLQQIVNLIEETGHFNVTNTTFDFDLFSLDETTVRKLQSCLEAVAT

Chain of MLLT3 (P42568 whole entry): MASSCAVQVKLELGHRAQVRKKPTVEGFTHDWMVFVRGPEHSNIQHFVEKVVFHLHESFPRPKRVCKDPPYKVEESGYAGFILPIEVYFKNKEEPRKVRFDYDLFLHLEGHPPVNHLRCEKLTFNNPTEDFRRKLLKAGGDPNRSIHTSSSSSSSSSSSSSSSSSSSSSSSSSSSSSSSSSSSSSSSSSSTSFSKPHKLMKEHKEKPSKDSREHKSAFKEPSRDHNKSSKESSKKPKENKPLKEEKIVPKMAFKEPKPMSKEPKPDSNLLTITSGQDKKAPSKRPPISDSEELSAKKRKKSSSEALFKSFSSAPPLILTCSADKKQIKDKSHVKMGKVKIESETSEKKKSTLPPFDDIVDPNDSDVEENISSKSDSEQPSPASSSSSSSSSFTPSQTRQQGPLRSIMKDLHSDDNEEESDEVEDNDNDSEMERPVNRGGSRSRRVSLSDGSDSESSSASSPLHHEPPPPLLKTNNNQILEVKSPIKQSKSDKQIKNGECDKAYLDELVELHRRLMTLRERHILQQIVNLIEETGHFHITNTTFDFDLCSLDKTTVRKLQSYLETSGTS

SMILES | IC50 (MLLT3) | IC50 (MLLT1)
Cc1nn(C)c2cc(C(=O)Nc3cn4cc([C@H]5CCCN5C)nc4cn3)c(F)cc12 [Example 73, 5-fluoro-1,3-dimethyl-N-{2-[(2R)-1-methylpyrrolidin-2-yl]imidazo[1,2-a]pyrazin-6-yl}-1H-indazole-6-carboxamide] | 150 to 1500 nM | 150 to 1500 nM
Cc1nn(C)c2cc(C(=O)Nc3cn4cc(C5CCCN5C)nc4cc3F)ccc12 (racemic) [Example 57, rac-N-[7-fluoro-2-(1-methylpyrrolidin-2-yl)imidazo[1,2-a]pyridin-6-yl]-1,3-dimethyl-1H-indazole-6-carboxamide] | 1500 to 20000 nM | 150 to 1500 nM
CN1CCCC1c1cn2cc(NC(=O)c3ccc(-c4cncs4)cc3F)ccc2n1 (single isomer, unassigned) [Example 7] | 1500 to 20000 nM | 1500 to 20000 nM
CN1C[C@@H](F)C[C@@H]1c1cn2cc(NC(=O)c3ccc4c(cnn4C)c3)ncc2n1 [Example 83, N-{2-[(2R,4S)-4-fluoro-1-methylpyrrolidin-2-yl]imidazo[1,2-a]pyrazin-6-yl}-1-methylindazole-5-carboxamide] | 150 to 1500 nM | 150 to 1500 nM
Cc1nn(C)c2cc(C(=O)Nc3cn4cc(C5CC(C)(C)CN5C)nc4cn3)ccc12 (single isomer, unassigned) [Example 81] | 1500 to 20000 nM | 1500 to 20000 nM
COCCN1CCCC1c1cn2cc(NC(=O)c3ccc4c(C)nn(C)c4c3)ccc2n1 (racemic) [Example 62, rac-N-{2-[1-(2-methoxyethyl)pyrrolidin-2-yl]imidazo[1,2-a]pyridin-6-yl}-1,3-dimethyl-1H-indazole-6-carboxamide] | 1500 to 20000 nM | 1500 to 20000 nM
CN1CCCC1c1cn2cc(NC(=O)c3ccc4cncnc4c3)ccc2n1 (racemic) [Example 47, rac-N-[2-(1-methylpyrrolidin-2-yl)imidazo[1,2-a]pyridin-6-yl]quinazoline-7-carboxamide] | 1500 to 20000 nM | 150 to 1500 nM
Cc1nc(-c2ccc(C(=O)Nc3ccc4nc(C5CCCN5C)cn4c3)cc2)cs1 (racemic) [Example 16, rac-4-(2-methyl-1,3-thiazol-4-yl)-N-[2-(1-methylpyrrolidin-2-yl)imidazo[1,2-a]pyridin-6-yl]benzamide] | 150 to 1500 nM | 150 to 1500 nM
CN1CCCC1c1cn2cc(NC(=O)c3ccc4cc(F)ccc4c3)ccc2n1 (single isomer, unassigned) [Example 6] | 1500 to 20000 nM | 1500 to 20000 nM
CN1CCC[C@@H]1c1cn2cc(NC(=O)c3ccc4c(N5CCCCC5)nn(C)c4c3)ncc2n1 [Example 98, 1-methyl-N-{2-[(2R)-1-methylpyrrolidin-2-yl]imidazo[1,2-a]pyrazin-6-yl}-3-(piperidin-1-yl)indazole-6-carboxamide] | 150 to 1500 nM | 150 to 1500 nM
CN1CCC[C@@H]1c1cn2cc(NC(=O)c3ccc4c(C5CC5)nn(C)c4c3)ncc2n1 [Example 71, 3-cyclopropyl-1-methyl-N-{2-[(2R)-1-methylpyrrolidin-2-yl]imidazo[1,2-a]pyrazin-6-yl}-1H-indazole-6-carboxamide] | 150 to 1500 nM | 150 to 1500 nM
CN1CCCC1c1cn2cc(NC(=O)c3ccc4c(cnn4C)c3)ccc2n1 (single isomer, unassigned) [Example 59] | 1500 to 20000 nM | 1500 to 20000 nM
CN1CCC[C@@H]1c1cn2cc(NC(=O)c3ccc4nnn(C)c4c3)ncc2n1 [Example 97, 3-methyl-N-{2-[(2R)-1-methylpyrrolidin-2-yl]imidazo[1,2-a]pyrazin-6-yl}-1,2,3-benzotriazole-5-carboxamide] | 150 to 1500 nM | 150 to 1500 nM
CN1CCCC1c1cn2cc(NC(=O)c3ccc4cc(F)ccc4c3)ccc2n1 (single isomer, unassigned) [Example 5] | 150 to 1500 nM | 150 to 1500 nM
Cc1nc(NC(=O)c2cc3cnc(C)n3cc2F)cn2cc([C@H]3CCCN3C)nc12 [Example 93, 6-fluoro-3-methyl-N-{8-methyl-2-[(2R)-1-methylpyrrolidin-2-yl]imidazo[1,2-a]pyrazin-6-yl}imidazo[1,5-a]pyridine-7-carboxamide] | 150 to 1500 nM | 150 to 1500 nM
CN1CCCC1c1cn2cc(NC(=O)c3ccc4c(cnn4C)c3)ccc2n1 (single isomer, unassigned) [Example 60] | 150 to 1500 nM | < 150 nM
Cc1nn(C)c2nc(C(=O)Nc3ccc4nc(C5CCCN5C)cn4c3)ccc12 (racemic) [Example 31, rac-1,3-dimethyl-N-[2-(1-methylpyrrolidin-2-yl)imidazo[1,2-a]pyridin-6-yl]-1H-pyrazolo[3,4-b]pyridine-6-carboxamide] | 1500 to 20000 nM | 1500 to 20000 nM
CN1CCCC1c1cn2cc(NC(=O)c3ccc4c(c3)c(C3CCCC3)nn4C)ccc2n1 (racemic) [Example 48, rac-3-cyclopentyl-1-methyl-N-[2-(1-methylpyrrolidin-2-yl)imidazo[1,2-a]pyridin-6-yl]-1H-indazole-5-carboxamide] | 150 to 1500 nM | 150 to 1500 nM
CN1CCC[C@@H]1c1cn2cc(NC(=O)c3cc4cnn(C)c4cc3F)ncc2n1 [Example 101, 6-fluoro-1-methyl-N-[2-[(2R)-1-methylpyrrolidin-2-yl]imidazo[1,2-a]pyrazin-6-yl]indazole-5-carboxamide] | 150 to 1500 nM | < 150 nM
Cc1nn(C)c2sc(C(=O)Nc3ccc4nc(C5CCCN5C)cn4c3)cc12 (racemic) [Example 18, rac-1,3-dimethyl-N-[2-(1-methylpyrrolidin-2-yl)imidazo[1,2-a]pyridin-6-yl]-1H-thieno[2,3-c]pyrazole-5-carboxamide] | 1500 to 20000 nM | 1500 to 20000 nM
CN1CCC[C@@H]1c1cn2cc(NC(=O)c3cc4cnn(C)c4cn3)ncc2n1 [Example 95, 1-methyl-N-{2-[(2R)-1-methylpyrrolidin-2-yl]imidazo[1,2-a]pyrazin-6-yl}pyrazolo[3,4-c]pyridine-5-carboxamide] | 1500 to 20000 nM | 1500 to 20000 nM
CN1CCCC1c1cn2cc(NC(=O)c3ccc(Cn4cccn4)cc3)ccc2n1 (racemic) [Example 42, rac-N-[2-(1-methylpyrrolidin-2-yl)imidazo[1,2-a]pyridin-6-yl]-4-[(1H-pyrazol-1-yl)methyl]benzamide] | 1500 to 20000 nM | 150 to 1500 nM
Cc1nn(C)c2cc(C(=O)Nc3cn4cc(C5CC(C(C)(C)C)CN5C)nc4cn3)ccc12 (racemic) [Example 84, rac-N-[2-(4-tert-butyl-1-methylpyrrolidin-2-yl)imidazo[1,2-a]pyrazin-6-yl]-1,3-dimethylindazole-6-carboxamide] | 150 to 1500 nM | < 150 nM
Cc1nn(C)c2cc(C(=O)Nc3cn4cc(C5CC(C)(C)CN5C)nc4cn3)ccc12 (single isomer, unassigned) [Example 82] | < 150 nM | < 150 nM
Cc1ncc(-c2ccc(C(=O)Nc3ccc4nc(C5CCCN5C)cn4c3)c(F)c2)s1 (single isomer, unassigned) [Example 25] | 150 to 1500 nM | 150 to 1500 nM
CN1CCCC1c1cn2cc(NC(=O)c3cc4ccncc4o3)ccc2n1 (racemic) [Example 54, rac-N-[2-(1-methylpyrrolidin-2-yl)imidazo[1,2-a]pyridin-6-yl]furo[2,3-c]pyridine-2-carboxamide] | 1500 to 20000 nM | 150 to 1500 nM
